Biological target: T1, CMT3 (Arabidopsis thaliana, UniProt Q94F88)
T1 construct: residues 42-839; N-terminal His6-SUMO tag removed by ULP1; E. coli BL21(DE3) RIL
T1 sequence (Q94F88 42-839): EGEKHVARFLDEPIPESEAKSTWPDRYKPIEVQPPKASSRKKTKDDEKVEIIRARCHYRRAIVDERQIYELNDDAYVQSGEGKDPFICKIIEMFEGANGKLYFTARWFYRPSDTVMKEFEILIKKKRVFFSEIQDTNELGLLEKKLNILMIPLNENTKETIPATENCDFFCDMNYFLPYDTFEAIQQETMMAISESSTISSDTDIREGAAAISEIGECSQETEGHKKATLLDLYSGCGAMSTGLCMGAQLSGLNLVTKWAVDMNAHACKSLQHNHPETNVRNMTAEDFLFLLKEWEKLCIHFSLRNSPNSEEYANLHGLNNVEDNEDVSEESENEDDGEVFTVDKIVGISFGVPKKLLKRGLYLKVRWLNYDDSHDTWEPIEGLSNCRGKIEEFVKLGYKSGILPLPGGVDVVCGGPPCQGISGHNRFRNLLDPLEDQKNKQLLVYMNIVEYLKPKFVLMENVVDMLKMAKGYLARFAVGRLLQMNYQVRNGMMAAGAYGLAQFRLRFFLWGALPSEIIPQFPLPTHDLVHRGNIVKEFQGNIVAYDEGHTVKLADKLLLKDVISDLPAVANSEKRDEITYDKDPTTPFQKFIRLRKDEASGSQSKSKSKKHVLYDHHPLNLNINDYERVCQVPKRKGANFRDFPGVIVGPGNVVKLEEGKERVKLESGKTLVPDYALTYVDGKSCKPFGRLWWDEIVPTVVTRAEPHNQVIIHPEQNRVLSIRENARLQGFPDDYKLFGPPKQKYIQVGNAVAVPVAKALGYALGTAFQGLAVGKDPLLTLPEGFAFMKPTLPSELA
Test: radiometric DNA methylation assay (3H-methyl transfer, nylon membrane)
Assay type: biochemical
Details: labelled compound; 0.56 uM [3H]SAM plus 1.96 uM SAM; 4.0 uM DNA; 4.0 uM histone peptide; no added NaCl; pH 8.0, 37 C, 1 h

C[S+](CC[C@H](N)C(=O)O)C[C@H]1O[C@@H](n2cnc3c(N)ncnc32)[C@H](O)[C@@H]1O (stereo partly drawn) [SAM, S-adenosyl-L-methionine]
radiometric DNA methylation assay (3H-methyl transfer, nylon membrane): All the rest of the reaction conditions for CMT3 were the same as those for ZMET2

From PMC9256654, “Mechanistic basis for maintenance of CHG DNA methylation in plants” (Nature Communications, 2022)
